# Laboratory results from paper PMC8882856, “The affinity and selectivity of α‐adrenoceptor antagonists, antidepressants and antipsychotics for the human α2A, α2B, and α2C‐adrenoceptors and comparison with human α1 and β‐adrenoceptors” (Pharmacology Research & Perspectives, 2022).
# Read-outs that look alike come from different tables or passages of the source.
# How the values were obtained:
# [1] = biological target: T1, human α2B‐adrenoceptor (Homo sapiens, UniProt P18089)
# T1 sequence (P18089 1-450): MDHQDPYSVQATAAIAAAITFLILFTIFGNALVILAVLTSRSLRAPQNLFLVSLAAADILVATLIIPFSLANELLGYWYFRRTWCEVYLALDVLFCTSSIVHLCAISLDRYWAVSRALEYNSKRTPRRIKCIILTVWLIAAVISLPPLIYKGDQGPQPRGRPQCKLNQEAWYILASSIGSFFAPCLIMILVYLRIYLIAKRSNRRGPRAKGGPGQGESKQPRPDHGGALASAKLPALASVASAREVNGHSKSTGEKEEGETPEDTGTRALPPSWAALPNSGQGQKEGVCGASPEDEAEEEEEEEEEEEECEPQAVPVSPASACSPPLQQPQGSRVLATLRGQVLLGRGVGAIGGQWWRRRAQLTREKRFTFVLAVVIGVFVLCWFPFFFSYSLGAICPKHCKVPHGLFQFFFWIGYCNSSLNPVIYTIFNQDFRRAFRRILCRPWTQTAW
# [2] = biological target: human β2‐adrenoceptor (Homo sapiens, UniProt P07550); format: binding
# human β2‐adrenoceptor, sequence (P07550 whole entry): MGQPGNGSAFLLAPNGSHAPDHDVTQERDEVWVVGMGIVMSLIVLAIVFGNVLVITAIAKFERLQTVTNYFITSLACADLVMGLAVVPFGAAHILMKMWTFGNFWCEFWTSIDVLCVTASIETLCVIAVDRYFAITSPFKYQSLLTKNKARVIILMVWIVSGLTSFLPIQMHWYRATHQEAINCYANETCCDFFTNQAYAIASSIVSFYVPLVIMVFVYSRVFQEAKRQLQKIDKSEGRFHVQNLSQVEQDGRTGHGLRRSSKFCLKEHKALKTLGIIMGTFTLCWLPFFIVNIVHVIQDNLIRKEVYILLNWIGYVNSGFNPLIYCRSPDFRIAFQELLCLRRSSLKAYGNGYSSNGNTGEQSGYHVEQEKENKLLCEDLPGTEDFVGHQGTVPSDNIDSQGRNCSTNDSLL
# [3] = biological target: T2, human α2C‐adrenoceptor (Homo sapiens, UniProt P18825); assay: ^3H‐rauwolscine whole cell competition binding, CHO‐α2C cells
# T2 sequence (P18825 1-462): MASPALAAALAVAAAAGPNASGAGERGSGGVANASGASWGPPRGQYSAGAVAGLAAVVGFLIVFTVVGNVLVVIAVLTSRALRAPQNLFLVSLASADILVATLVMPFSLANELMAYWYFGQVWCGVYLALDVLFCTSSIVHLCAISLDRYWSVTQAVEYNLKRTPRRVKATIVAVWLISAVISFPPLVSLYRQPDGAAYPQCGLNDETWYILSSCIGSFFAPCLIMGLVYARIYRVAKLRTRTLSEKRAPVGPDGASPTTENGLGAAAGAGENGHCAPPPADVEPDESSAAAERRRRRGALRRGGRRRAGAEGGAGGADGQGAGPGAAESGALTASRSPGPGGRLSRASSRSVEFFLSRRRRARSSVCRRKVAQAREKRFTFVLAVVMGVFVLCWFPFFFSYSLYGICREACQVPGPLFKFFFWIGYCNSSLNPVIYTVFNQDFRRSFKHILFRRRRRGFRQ
# [4] = biological target: T3, human α2A‐adrenoceptor (Homo sapiens, UniProt P08913)
# T3 sequence (P08913 1-465): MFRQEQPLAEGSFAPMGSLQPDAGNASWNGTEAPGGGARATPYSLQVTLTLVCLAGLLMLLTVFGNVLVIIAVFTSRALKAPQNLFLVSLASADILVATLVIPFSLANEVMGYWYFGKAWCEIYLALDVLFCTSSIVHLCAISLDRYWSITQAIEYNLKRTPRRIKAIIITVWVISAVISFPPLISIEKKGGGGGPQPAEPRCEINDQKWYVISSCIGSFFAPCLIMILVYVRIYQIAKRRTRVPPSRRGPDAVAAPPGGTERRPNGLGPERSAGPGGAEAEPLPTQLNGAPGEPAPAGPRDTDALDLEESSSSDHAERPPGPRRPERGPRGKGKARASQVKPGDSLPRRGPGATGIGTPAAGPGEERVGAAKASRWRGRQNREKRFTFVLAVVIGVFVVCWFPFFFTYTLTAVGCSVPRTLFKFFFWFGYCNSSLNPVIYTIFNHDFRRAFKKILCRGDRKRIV
# [5] = biological target: T3, human α2A‐adrenoceptor; assay: ^3H‐rauwolscine whole cell competition binding, CHO‐α2A cells
# [6] = biological target: T4, human β1‐adrenoceptor (Homo sapiens, UniProt P08588); settings: for Log KD β1: mean ± s.e.mean
# T4 sequence (P08588 whole entry): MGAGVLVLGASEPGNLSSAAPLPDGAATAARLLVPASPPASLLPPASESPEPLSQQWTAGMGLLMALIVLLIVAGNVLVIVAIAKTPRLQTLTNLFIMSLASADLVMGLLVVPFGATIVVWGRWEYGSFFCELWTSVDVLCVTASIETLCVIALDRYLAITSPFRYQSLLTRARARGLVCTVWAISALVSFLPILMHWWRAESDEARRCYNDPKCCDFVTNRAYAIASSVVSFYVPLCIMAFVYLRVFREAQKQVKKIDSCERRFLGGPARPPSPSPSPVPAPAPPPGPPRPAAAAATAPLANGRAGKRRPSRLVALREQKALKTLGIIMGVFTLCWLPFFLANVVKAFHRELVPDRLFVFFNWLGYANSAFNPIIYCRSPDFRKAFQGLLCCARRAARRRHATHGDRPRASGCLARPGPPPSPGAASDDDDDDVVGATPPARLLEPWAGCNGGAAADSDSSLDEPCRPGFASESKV
# [7] = biological target: T2, human α2C‐adrenoceptor
# [8] = biological target: T1, human α2B‐adrenoceptor; assay: ^3H‐rauwolscine whole cell competition binding, CHO‐α2B cells
# [9] = biological target: human α1A‐adrenoceptor; parameters: method as in PMID 32608144; settings: identical whole cell method; ref [33]; read-out: α1A‐adrenoceptor affinity; cited from earlier work
# [10] = biological target: human α2A‐adrenoceptors; settings: cited from earlier work
# [11] = biological target: T4, human β1‐adrenoceptor; assay: cell-based
# [12] = biological target: T1, human α2B‐adrenoceptor; assay: ^3H‐RX821002 whole cell competition binding, CHO‐α2B cells
# [13] = biological target: T2, human α2C‐adrenoceptor; assay: ^3H‐RX821002 whole cell competition binding, CHO‐α2C cells; settings: ^3H‐RX821002 as radioligand; living CHO cells; log values, mean ± s.e.mean
# [14] = biological target: T3, human α2A‐adrenoceptor; assay: ^3H‐RX821002 whole cell competition binding, CHO‐α2A cells
# [15] = biological target: T3, human α2A‐adrenoceptor; assay: cell-based
# [16] = biological target: T2, human α2C‐adrenoceptor; assay: cell-based
# [17] = ^3H‐CGP12177 whole cell binding, log values, ^app = apparent KD, 'no binding to' = log top concentration
# [18] = ^3H‐CGP12177 whole cell binding, log values, mean ± s.e.mean, ^app = apparent KD, 'no binding to' = log top concentration
# [19] = this study, read-out: β2‐adrenoceptor affinity
smiles,measurement,setting,value
COc1ccccc1N1CCN(CC2CN3C(=O)N(C)c4ccccc4C3=N2)CC1 (stereo not drawn) [2‐MPMDQ],Kd,[1],1150 nM
same,"IC50 (log) β2, IC50>top concentration used","[2]; ^3H‐CGP12177, log value",IC50>−5
same,Selectivity ratio α2A vs α2C (higher affinity for α2C),[3]; ratio of KD values,5.1
same,Selectivity ratio α2B vs α2C (higher affinity for α2C),[3]; ratio of KD values,36.3
same,Kd,[4],162 nM
same,Selectivity ratio α2A vs α2B (higher affinity for α2A),[5]; ratio of KD values,7.1
same,"IC50 (log) β1, IC50>top concentration used","[6]; ^3H‐CGP12177, log value",IC50>−5
same,Kd,[7],31.6 nM
O=C1Nc2ccccc2C2=NC(CN3CCN(c4ccccc4)CC3)CN12 (stereo not drawn) [2‐PMDQ],Kd,[1],724 nM
same,"IC50 (log) β2, IC50>top concentration used","[2]; ^3H‐CGP12177, log value",IC50>−4
same,Selectivity ratio α2A vs α2C (higher affinity for α2C),[3]; ratio of KD values,1.7
same,Selectivity ratio α2B vs α2C (higher affinity for α2C),[3]; ratio of KD values,8.5
same,Kd,[4],148 nM
same,Selectivity ratio α2A vs α2B (higher affinity for α2A),[5]; ratio of KD values,4.9
same,Log KD β1,[6]; [17],No binding −4
same,Kd,[7],85.1 nM
COc1cccc2c1CCC[C@H]2CN(C)CCc1ccc2ccoc2c1.CS(=O)(=O)O [A80426],Kd,[1],302 nM
same,Log KD β2,[2]; [18],−5.88 ± 0.04
same,Kd,[7],34.7 nM
O=C1c2ccccc2CCC1CNCCc1ccc(O)cc1 (stereo not drawn) [HEAT],Kd,[1],19.1 nM
same,"IC50 (log) β2, IC50>top concentration used","[2]; ^3H‐CGP12177, log value",IC50>−4
same,Selectivity ratio α2A vs α2B (higher affinity for α2B),[8]; ratio of KD values,1.9
same,Selectivity ratio α2A vs α2C (higher affinity for α2C),[3]; ratio of KD values,4.0
same,Selectivity ratio α2B vs α2C (higher affinity for α2C),[3]; ratio of KD values,2.1
same,Kd,[4],35.5 nM
same,"IC50 (log) β1, IC50>top concentration used","[6]; ^3H‐CGP12177, log value",IC50 ~−4.5
same,Kd,[7],8.91 nM
CN1CCN(c2ccc(Nc3c4ccccc4nc4ccccc34)cc2)CC1 [JP1302],Log KD β2,[2]; [18],−5.58 ± 0.08
same,α1A‐adrenoceptor affinity less than α2C affinity,[3],5 fold
same,Kd,[9],617 nM
same,"IC50 (log) β1, IC50>top concentration used",[6],IC50>−4
CCS(=O)(=O)N1CCC[C@@H]2CN3CCc4cc(OC)ccc4[C@@H]3C[C@@H]21 [RS79948],Kd,[1],2.69 nM
same,"IC50 (log) β2, IC50>top concentration used","[2]; ^3H‐CGP12177, log value",IC50>−3
same,Selectivity ratio α2A vs α2C (higher affinity for α2C),[3]; ratio of KD values,2.7
same,Selectivity ratio α2B vs α2C (higher affinity for α2C),[3]; ratio of KD values,6.2
same,Kd,[4],1.17 nM
same,Selectivity ratio α2A vs α2B (higher affinity for α2A),[5]; ratio of KD values,2.3
same,Log KD β1,[6]; [17],−3.84 ± 0.05
same,Kd,[7],0.437 nM
Cc1c[nH]c(=O)n(CCCN2CCN(c3ccccc3OCC(F)(F)F)CC2)c1=O [RS100329],Kd,[1],339 nM
same,Log KD β2,[2]; [18],−4.77 ± 0.07
same,Selectivity ratio α2A vs α2C (higher affinity for α2C),[3]; ratio of KD values,6.6
same,Selectivity ratio α2B vs α2C (higher affinity for α2C),[3]; ratio of KD values,22.4
same,Kd,[4],100 nM
same,Selectivity ratio α2A vs α2B (higher affinity for α2A),[5]; ratio of KD values,3.4
same,"IC50 (log) β1, IC50>top concentration used","[6]; ^3H‐CGP12177, log value",IC50>−3
same,Kd,[7],15.1 nM
COc1ccc(NC(=O)N2CCc3c2ccc2ccccc32)cc1N1CCN(C)CC1 [S32212],Kd,[1],15.8 nM
same,"IC50 (log) β2, IC50>top concentration used","[2]; ^3H‐CGP12177, log value",IC50>−5
same,selectivity α2B versus α2C,[8],less than 5 fold
same,Selectivity ratio α2A vs α2B (higher affinity for α2B),[8]; ratio of KD values,15.1
same,Selectivity ratio α2B vs α2C (higher affinity for α2B),[8]; ratio of KD values,4.2
same,Selectivity ratio α2A vs α2C (higher affinity for α2C),[3]; ratio of KD values,3.6
same,Kd,[4],240 nM
same,"IC50 (log) β1, IC50>top concentration used","[6]; ^3H‐CGP12177, log value",IC50>−5
same,Kd,[7],66.1 nM
CN1CCc2cccc(Cl)c2CC1 [SKF86466],Kd,"[10]; ref [23], read-out: human α2A‐affinity",13 nM
same,Kd,[2]; [19],250 nM
same,Log KD α2B,[8],−6.17 ± 0.047
same,Kd,[5],513 nM
same,Kd,[11],1200 nM
COc1cccc(OC)c1OCCNCC1COc2ccccc2O1 (stereo not drawn) [WB4104],"IC50 (log) β2, IC50>top concentration used","[2]; ^3H‐CGP12177, log value",IC50>−4
same,Log KD α2B,[8],−6.77 ± 0.05
same,Log KD α2C,[3],−8.17 ± 0.05
same,Selectivity ratio α2A vs α2C (higher affinity for α2C),[3],4.2
same,Selectivity ratio α2B vs α2C (higher affinity for α2C),[3],25.1
same,Log KD α2B,[12],−6.88 ± 0.05
same,Log KD α2A,[5],−7.55 ± 0.05
same,Selectivity ratio α2A vs α2B (higher affinity for α2A),[5],6.0
same,"IC50 (log) β1, IC50>top concentration used","[6]; ^3H‐CGP12177, log value",IC50>−4
same,Log KD α2C,[13],−8.24 ± 0.13
same,Log KD α2A,"[14]; ^3H‐RX821002 as radioligand, living CHO cells, log values, mean ± s.e.mean, ^app = apparent KD from extrapolated curve",−7.58 ± 0.05
COc1ccccc1OCCNCC(O)COc1cccc2[nH]c3ccccc3c12 (stereo not drawn) [carvedilol],Kd,[15],288 nM
same,Kd,[14],263 nM
CN1CCN2c3ncccc3Cc3ccccc3C2C1 (stereo not drawn) [mirtazepine],Kd,"[10]; ref [51], read-out: affinity at human α2A receptors",79 to 126 nM
Cc1nc2n(c(=O)c1CCN1CCC(c3noc4cc(F)ccc34)CC1)CCCC2O (stereo not drawn) [paliperidone],IC50,"[2]; ^3H‐CGP12177, log value, read-out: IC50 (log) β2, IC50>top concentration used (converted)",> 31.6 µM
same,Kd,[3],14 nM
same,Kd,[9],4 nM
same,IC50,[11],> 31.6 µM
COc1cc2nc(N3CCN(C(=O)c4ccco4)CC3)nc(N)c2cc1OC [prazosin],Kd,"[10]; ref [6], read-out: affinity at human α2A‐adrenoceptors",16000 nM
same,Kd,"[10]; ref [21], [28], read-out: affinity at human α2A‐adrenoceptors",300 nM
same,Kd,"[2]; ^3H‐CGP12177 whole cell binding, log values, mean ± s.e.mean, ^app = apparent KD, 'no binding to' = log top concentration, read-out: Log KD β2 (converted)",7940 nM
same,Log KD β1,[6]; [17],No binding to −4
same,Log KD β1,"[6]; given as log KD (negative values), 3H-CGP12177 whole cell binding, CHO cells",No binding to -4
C[C@H](Cc1cc2c(c(C(N)=O)c1)N(CCCO)CC2)NCCOc1ccccc1OCC(F)(F)F [silodosin],Kd,[16],759 nM
same,Kd,[2]; [19],~30 nM
same,IC50,[8],> 10 µM
same,Kd,[15],3240 nM
same,Kd,[9],0.25 nM
same,IC50,[11],> 10 µM
